In ChEMBL document CHEMBL2407043, “Hydantoin based inhibitors of MMP13--discovery of AZD6605” (Bioorg Med Chem Lett, 2013):
pIC50: −log10 of the molar value. Converted amounts (≈) assume the structure as drawn. Each block holds one compound with its values, some of them ahead of it.

How the values were obtained:
[1] = Thermodynamic solubility of the compound in phosphate buffer at pH 7.4 at 25 degC after 24 hrs; conditions: read-out: Therm_solubility
[2] = Oral bioavailability in dog at 1 mg/kg; assay type: ADME, organism-based, Canis lupus familiaris; conditions: in vivo
[3] = Oral bioavailability in rat at 5 mg/kg; assay type: ADME, organism-based; conditions: in vivo
[4] = Half life in dog at 0.5 mg/kg, iv and 1 mg/kg, po; assay type: ADME, organism-based, Canis lupus familiaris; conditions: in vivo
[5] = Volume of distribution at steady state in dog at 0.5 mg/kg, iv and 1 mg/kg, po; assay type: ADME, organism-based, Canis lupus familiaris; conditions: in vivo, read-out: Vdss
[6] = Clearance in dog at 0.5 mg/kg, iv and 1 mg/kg, po; assay type: ADME, organism-based, Canis lupus familiaris; conditions: in vivo
[7] = Volume of distribution at steady state in rat at 2 mg/kg, iv and 5 mg/kg, po; assay type: ADME, organism-based; conditions: in vivo, read-out: Vdss
[8] = Half life in rat at 2 mg/kg, iv and 5 mg/kg, po; assay type: ADME, organism-based; conditions: in vivo
[9] = Clearance in rat at 2 mg/kg, iv and 5 mg/kg, po; assay type: ADME, organism-based; conditions: in vivo
[10] = target: Cytochrome P450 3A4 (Homo sapiens, UniProt P08684); test: Inhibition of human CYP3A4; assay type: ADME
Chain of Cytochrome P450 3A4 (P08684 whole entry): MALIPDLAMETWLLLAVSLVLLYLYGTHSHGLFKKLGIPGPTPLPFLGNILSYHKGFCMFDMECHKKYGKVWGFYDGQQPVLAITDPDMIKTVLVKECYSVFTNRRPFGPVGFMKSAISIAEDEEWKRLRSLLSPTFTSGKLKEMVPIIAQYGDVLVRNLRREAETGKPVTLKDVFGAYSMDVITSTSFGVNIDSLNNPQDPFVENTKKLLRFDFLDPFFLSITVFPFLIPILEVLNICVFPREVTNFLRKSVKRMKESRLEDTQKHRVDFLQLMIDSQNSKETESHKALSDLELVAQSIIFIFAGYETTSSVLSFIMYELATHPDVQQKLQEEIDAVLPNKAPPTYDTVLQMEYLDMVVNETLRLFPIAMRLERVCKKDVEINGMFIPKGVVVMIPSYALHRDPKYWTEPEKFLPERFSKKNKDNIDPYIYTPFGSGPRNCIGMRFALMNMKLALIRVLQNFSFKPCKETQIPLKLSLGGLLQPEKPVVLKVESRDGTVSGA

[11] = target: Cytochrome P450 2D6 (Homo sapiens, UniProt P10635); test: Inhibition of human CYP2D6; assay type: ADME
Chain of Cytochrome P450 2D6 (P10635 whole entry): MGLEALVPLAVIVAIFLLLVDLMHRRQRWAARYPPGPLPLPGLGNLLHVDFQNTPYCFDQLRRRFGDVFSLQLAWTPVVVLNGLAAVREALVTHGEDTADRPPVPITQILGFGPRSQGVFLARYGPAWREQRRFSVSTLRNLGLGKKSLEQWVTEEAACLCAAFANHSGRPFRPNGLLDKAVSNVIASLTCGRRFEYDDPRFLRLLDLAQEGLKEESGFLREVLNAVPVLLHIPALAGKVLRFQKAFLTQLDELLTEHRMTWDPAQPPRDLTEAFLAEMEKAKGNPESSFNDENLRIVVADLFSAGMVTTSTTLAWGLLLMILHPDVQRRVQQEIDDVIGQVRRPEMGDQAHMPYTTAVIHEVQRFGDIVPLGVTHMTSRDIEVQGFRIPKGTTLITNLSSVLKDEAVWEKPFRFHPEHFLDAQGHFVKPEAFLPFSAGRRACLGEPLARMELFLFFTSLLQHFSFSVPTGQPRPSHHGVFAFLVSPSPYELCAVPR

[12] = target: Cytochrome P450 2C9 (Homo sapiens, UniProt P11712); test: Inhibition of human CYP2C9; assay type: ADME
Chain of Cytochrome P450 2C9 (P11712 whole entry): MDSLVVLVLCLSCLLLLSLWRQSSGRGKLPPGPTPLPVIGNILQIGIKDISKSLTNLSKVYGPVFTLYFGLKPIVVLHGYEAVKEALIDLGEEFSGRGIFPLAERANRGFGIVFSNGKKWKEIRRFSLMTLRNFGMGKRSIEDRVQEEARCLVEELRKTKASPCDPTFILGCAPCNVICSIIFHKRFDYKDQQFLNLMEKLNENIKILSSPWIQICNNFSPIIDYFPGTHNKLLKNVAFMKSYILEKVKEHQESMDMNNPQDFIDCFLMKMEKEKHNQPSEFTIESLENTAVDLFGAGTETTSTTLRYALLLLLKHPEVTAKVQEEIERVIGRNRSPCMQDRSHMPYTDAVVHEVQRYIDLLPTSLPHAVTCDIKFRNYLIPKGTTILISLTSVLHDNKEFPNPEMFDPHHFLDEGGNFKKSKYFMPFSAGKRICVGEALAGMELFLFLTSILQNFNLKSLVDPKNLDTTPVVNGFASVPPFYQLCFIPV

[13] = target: Cytochrome P450 2C19 (Homo sapiens, UniProt P33261); test: Inhibition of human CYP2C19; assay type: ADME
Chain of Cytochrome P450 2C19 (P33261 whole entry): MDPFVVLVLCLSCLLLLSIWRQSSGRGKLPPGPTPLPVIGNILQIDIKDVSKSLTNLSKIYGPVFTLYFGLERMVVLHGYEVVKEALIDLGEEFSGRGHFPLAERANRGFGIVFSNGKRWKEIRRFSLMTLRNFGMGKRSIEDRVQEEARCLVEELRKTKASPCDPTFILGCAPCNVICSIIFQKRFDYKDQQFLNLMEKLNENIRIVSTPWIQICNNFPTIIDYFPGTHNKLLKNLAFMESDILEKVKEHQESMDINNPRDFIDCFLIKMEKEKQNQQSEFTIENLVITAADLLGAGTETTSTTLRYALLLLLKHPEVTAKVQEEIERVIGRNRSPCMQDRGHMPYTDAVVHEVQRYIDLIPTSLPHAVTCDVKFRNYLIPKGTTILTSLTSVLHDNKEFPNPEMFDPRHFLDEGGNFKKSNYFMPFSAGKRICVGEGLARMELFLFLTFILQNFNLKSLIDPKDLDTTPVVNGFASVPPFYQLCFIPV

[14] = target: T1, Cytochrome P450 1A2 (Homo sapiens, UniProt P05177); test: Inhibition of human CYP1A2; assay type: ADME
T1 sequence (P05177 whole entry): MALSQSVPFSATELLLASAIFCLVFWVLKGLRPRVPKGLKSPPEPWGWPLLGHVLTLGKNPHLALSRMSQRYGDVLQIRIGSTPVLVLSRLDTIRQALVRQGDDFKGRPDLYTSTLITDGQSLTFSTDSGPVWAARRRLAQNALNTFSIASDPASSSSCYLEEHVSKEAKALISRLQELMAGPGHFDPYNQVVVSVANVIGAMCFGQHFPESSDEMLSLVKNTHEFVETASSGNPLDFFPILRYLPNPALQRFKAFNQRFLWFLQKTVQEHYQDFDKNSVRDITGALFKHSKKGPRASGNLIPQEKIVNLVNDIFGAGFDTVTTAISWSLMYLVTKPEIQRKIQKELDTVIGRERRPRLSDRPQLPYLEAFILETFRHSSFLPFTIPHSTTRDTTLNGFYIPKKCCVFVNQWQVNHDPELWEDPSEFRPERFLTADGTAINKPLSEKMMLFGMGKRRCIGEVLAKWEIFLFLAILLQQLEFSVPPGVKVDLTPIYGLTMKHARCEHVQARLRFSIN

[15] = target: Matrix metalloproteinase-14 (Homo sapiens, UniProt P50281)
[16] = Clearance in rat at 2 mg/kg, iv; assay type: ADME, organism-based; design: dose 2 mg/kg, route intravenous; conditions: in vivo
[17] = Half life in rat; assay type: ADME, organism-based; conditions: in vivo
[18] = in vitro; conditions: human, liver microsomes
[19] = Elimination half life in dog; assay type: ADME, organism-based, Canis lupus familiaris; conditions: in vivo, read-out: beta t1/2 (converted)
[20] = Elimination half life in rat; assay type: ADME, organism-based; conditions: in vivo, read-out: beta t1/2 (converted)
[21] = Elimination half life in mouse; assay type: ADME, organism-based; conditions: in vivo, read-out: beta t1/2 (converted)
[22] = Oral bioavailability in rat at 3 to 10 mg/kg; assay type: ADME, organism-based; conditions: in vivo
[23] = target: Macrophage metalloelastase (Homo sapiens, UniProt P39900); test: Inhibition of MMP-12 (unknown origin) by fluorescence assay
Chain of Macrophage metalloelastase (P39900 whole entry): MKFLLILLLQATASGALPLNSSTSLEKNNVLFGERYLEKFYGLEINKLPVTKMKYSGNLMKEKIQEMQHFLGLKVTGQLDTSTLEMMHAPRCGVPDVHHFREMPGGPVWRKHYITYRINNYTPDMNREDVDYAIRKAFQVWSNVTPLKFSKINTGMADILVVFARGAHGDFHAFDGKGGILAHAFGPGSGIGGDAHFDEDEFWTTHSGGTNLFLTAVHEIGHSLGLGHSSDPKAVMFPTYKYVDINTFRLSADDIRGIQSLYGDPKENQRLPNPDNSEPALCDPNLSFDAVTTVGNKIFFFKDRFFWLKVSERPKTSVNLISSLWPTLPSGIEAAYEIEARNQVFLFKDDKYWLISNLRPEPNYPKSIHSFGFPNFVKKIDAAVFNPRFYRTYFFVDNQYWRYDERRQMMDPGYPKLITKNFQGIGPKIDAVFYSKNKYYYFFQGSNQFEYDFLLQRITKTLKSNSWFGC

[24] = Intrinsic clearance in dog liver microsomes; assay type: ADME, Canis lupus familiaris, Microsome; conditions: read-out: CLH
[25] = Intrinsic clearance in rat liver microsomes; assay type: ADME, Microsome; conditions: read-out: CLH

Compound: C[C@]1(CS(=O)(=O)N2CCN(c3ncc(OCc4ccc(F)cc4)cn3)CC2)NC(=O)NC1=O
- Vd [7]: 0.5 L/kg
- clearance [16]: 4.8 mL/min/kg
- half-life [17]: 1.9 h
- microsomal CLint [18]: 16 µL/min/mg
- solubility thermodynamic at 24 h [1]: 16 µM (≈ 7.66 µg/mL)

Compound: C[C@]1(CS(=O)(=O)N2CCN(c3ncc(OCc4cccc(C#N)c4)cn3)CC2)NC(=O)NC1=O
- half-life [19]: 5.4 h
- half-life [20]: 7.5 h
- half-life [21]: 5.8 h
- Vd [7]: 0.5 L/kg
- clearance [16]: 18.1 mL/min/kg
- half-life [17]: 7.5 h
- bioavailability [22]: 51%
- microsomal CLint [18]: < 2 µL/min/mg
- solubility thermodynamic at 24 h [1]: 66 µM (≈ 32 µg/mL)

Compound: C[C@]1(CS(=O)(=O)N2CCN(c3ncc(OCc4ccc(S(C)(=O)=O)cc4)cn3)CC2)NC(=O)NC1=O
- solubility thermodynamic at 24 h [1]: 1 µM (≈ 0.539 µg/mL)

Compound: C[C@]1(CS(=O)(=O)N2CCC(Oc3ccc(F)cc3)CC2)NC(=O)NC1=O
- pIC50 [23]: 7.63
- solubility thermodynamic at 24 h [1]: 52 µM (≈ 20 µg/mL)

Compound: C[C@]1(CS(=O)(=O)N2CCC(Oc3ccc(OCC(F)(F)C(F)(F)F)cc3)CC2)NC(=O)NC1=O
- pIC50 [15]: 5.32
- solubility thermodynamic at 24 h [1]: 4.4 µM (≈ 2.27 µg/mL)

Compound: C[C@]1(CS(=O)(=O)N2CCC(Oc3ccc(OCC(F)(F)C(F)F)cc3)CC2)NC(=O)NC1=O
- pIC50 [15]: 6.26
- solubility thermodynamic at 24 h [1]: 32 µM (≈ 15.9 µg/mL)

Compound: C[C@]1(CS(=O)(=O)N2CCC(Oc3ccc(OC(F)(F)C(F)(F)F)cc3)CC2)NC(=O)NC1=O
- pIC50 [15]: < 5.00
- solubility thermodynamic at 24 h [1]: < 2 µM

Compound: C[C@]1(CS(=O)(=O)N2CCC(Oc3ccc(C(F)(F)F)cc3)CC2)NC(=O)NC1=O
- microsomal CLint [24]: < 10 µL/min/mg
- microsomal CLint [25]: < 10 µL/min/mg
- pIC50 [10]: < 4.40
- pIC50 [11]: < 4.40
- pIC50 [12]: < 4.40
- pIC50 [13]: < 4.40
- pIC50 [14]: < 4.40
- pIC50 [23]: 8.23
- microsomal CLint [18]: < 10 µL/min/mg
- solubility thermodynamic at 24 h [1]: 23 µM (≈ 10 µg/mL)

Compound: C[C@]1(CS(=O)(=O)N2CCC(Oc3ccc(Cl)cc3)CC2)NC(=O)NC1=O
- pIC50 [23]: 8.05
- solubility thermodynamic at 24 h [1]: 12 µM (≈ 4.82 µg/mL)

Further lines, results first:

- solubility thermodynamic at 24 h [1]: 8.4 µM (≈ 3.99 µg/mL)
Compound: C[C@]1(CS(=O)(=O)N2CCC(Oc3ccc(OCc4cccnc4)cc3)CC2)NC(=O)NC1=O

- bioavailability [2]: 51%
- bioavailability [3]: 35%
- half-life [4]: 2.3 h
- Vd [5]: 0.6 L/kg
- clearance [6]: 3 mL/min/kg
- Vd [7]: 0.8 L/kg
- half-life [8]: 2.5 h
- clearance [9]: 17 mL/min/kg
- pIC50 [10]: < 5.00
- pIC50 [11]: < 5.00
- pIC50 [12]: < 5.00
- pIC50 [13]: < 5.00
- pIC50 [14]: < 5.00
- pIC50 [15]: 5.16
- solubility thermodynamic at 24 h [1]: 20 µM (≈ 9.49 µg/mL)
Compound: C[C@]1(CS(=O)(=O)N2CCC(Oc3ccc(OCc4ccccn4)cc3)CC2)NC(=O)NC1=O

- pIC50 [15]: 5.39
- solubility thermodynamic at 24 h [1]: 87 µM (≈ 41.8 µg/mL)
Compound: C[C@]1(CS(=O)(=O)N2CCC(Oc3ccc(OCc4cscn4)cc3)CC2)NC(=O)NC1=O

- pIC50 [15]: 6.46
- solubility thermodynamic at 24 h [1]: 28 µM (≈ 13.5 µg/mL)
Compound: C[C@]1(CS(=O)(=O)N2CCC(Oc3ccc(OCc4cnsn4)cc3)CC2)NC(=O)NC1=O

- pIC50 [15]: 5.73
Compound: C[C@]1(CS(=O)(=O)N2CCC(Oc3ccc(OCc4ccc(C(F)(F)F)o4)cc3)CC2)NC(=O)NC1=O

- pIC50 [15]: 5.55
- pIC50 [23]: 8.70
- solubility thermodynamic at 24 h [1]: 15 µM (≈ 6.17 µg/mL)
Compound: CCOc1ccc(OC2CCN(S(=O)(=O)C[C@@]3(C)NC(=O)NC3=O)CC2)cc1

- pIC50 [15]: 5.02
- pIC50 [23]: 8.48
- solubility thermodynamic at 24 h [1]: 18 µM (≈ 8.13 µg/mL)
Compound: C[C@]1(CS(=O)(=O)N2CCC(Oc3ccc(OC(F)(F)F)cc3)CC2)NC(=O)NC1=O

- pIC50 [15]: 5.71
- solubility thermodynamic at 24 h [1]: 34 µM (≈ 15.8 µg/mL)
Compound: C[C@]1(CS(=O)(=O)N2CCC(Oc3ccc(OCC(F)(F)F)cc3)CC2)NC(=O)NC1=O

- pIC50 [15]: 5.51
- solubility thermodynamic at 24 h [1]: 110 µM (≈ 52.7 µg/mL)
Compound: C[C@]1(CS(=O)(=O)N2CCC(Oc3ccc(OCCC(F)(F)F)cc3)CC2)NC(=O)NC1=O
